Measurements as given in patent publication US20250311722A1, “IMPROVED BIOCIDE” (Purgos ApS, priority 2022, published 2025).
≈ marks a conversion by molar mass, not a printed value.

What was measured:
[1] = system: bacteria; assay: 2,2′-(octylimino)bisethanol in K-Oleate, incubated at 32° C., cATP (LuminUltra); format: cell-based
Experimental: (§1) A solution of 2,2′-(octylimino)bisethanol was added to two different solutions comprising two different surfactants, in two different concentrations of 0.50% and 1.00%. The four different solutions incubated at 32° C. and analysed for microbial activity and microbial contamination using […] Adenosine Triphosphate cATP as a measure of microbial contamination using LuminUltra® microbial monitoring system (see e.g. Examples 1, 5 and 6). The results are summarized in tables XXV and XXVI, where “additive” refers to 2,2′-(octylimino)bisethanol.

[2] = system: bacteria; assay: 2,2′-(octylimino)bisethanol in common surfactant/soap, at 32° C., cATP (LuminUltra); format: cell-based
Experimental: as §1

[3] = system: bacteria; assay: 2,2′-(octylimino)bisethanol in contaminated solution of polyisocyanate crosslinker, 32° C., cATP (LuminUltra); format: cell-based; conditions: for bacteria count: 32° C.
Experimental: For further analysing the biocidal effect of 2,2′-(octylimino)bisethanol, a solution of 2,2′-(octylimino)bisethanol was added into a contaminated solution of polyisocyanate crosslinker in two different concentrations of 0.50% and 1.00%, incubated at 32° C. and analysed for microbial activity and microbial contamination using […] Adenosine Triphosphate cATP as a measure of microbial contamination using LuminUltra® microbial monitoring system.

[4] = cited from earlier work
[5] = system: bacteria; assay: APDEA in different PVB dispersions at 32° C., ATP analysis (LuminUltra); format: cell-based; set-up: bacteria count 6 mo after adding APDEA / bacteria count 1 d after adding APDEA / bacteria count 1 wk after adding APDEA / bacteria count 1 mo after adding APDEA / bacteria count 3 mo after adding APDEA: unit not given here
Experimental: Tertiary amine, water and PVB-dispersion was mechanically stirred in IKA vertical fixed blade stirrer for sampling in 2-5 minutes. Conditions was industrial clean, meaning no special precautions was taken to prevent contamination, except normal cleanliness and between operations dishwashing procedures.
Working temperatures was 20-25 degre Celsius, and all incubations was made in thermostatic 32-degree Celsius incubator ovens for bottled flasks and open petri dishes.
Before measuring total ATP, the samples are shaken for 30 seconds in a mechanical mixer. 1 ml of each sample is used in the process of analysing total ATP. The protocol is provided by LuminUltra Technologies.
The biocidal effectivity of APDEA in different PVB dispersions was measured as explained above in example 46. Incubation was done at 32° C. and sample tested 1 day (abbreviated as 1d in table XX), 1 week (abbreviated as 1 wk in table XX) and 1, 3 and 6 months (abbreviated as mo in tables XXIII and XXIV) after addition of APDEA.

[6] = system: rat; conditions: cited from earlier work
[7] = 0.50% in common surfactant/soap
[8] = 1.00% in common surfactant/soap
[9] = 0.5% APDEA, PVB dispersion FX2, 32° C.
[10] = 0.5% APDEA, PVB dispersion FX6, 32° C.
[11] = 0.5% APDEA, PVB dispersion MW, 32° C.
[12] = 0.5% APDEA, PVB dispersion SX2, 32° C.
[13] = 0.5% APDEA, PVB dispersion WX2, 32° C.
[14] = 0.5% APDEA, PVB dispersion WX25, 32° C.
[15] = 1.0% APDEA, PVB dispersion FX2, 32° C.
[16] = 1.0% APDEA, PVB dispersion FX6, 32° C.
[17] = 1.0% APDEA, PVB dispersion MW, 32° C.
[18] = 1.0% APDEA, PVB dispersion SX2, 32° C.
[19] = 1.0% APDEA, PVB dispersion WX2, 32° C.
[20] = 1.0% APDEA, PVB dispersion WX25, 32° C.

SMILES: CCCCCCCCN(CCO)CCO [2,2′-(octylimino)bisethanol]
- BSI (1 day after adding additive) ([1]; 0.50% in K-Oleate): 29
- BSI (after 1 month) ([1]; 0.50% in K-Oleate): 68
- BSI (after 1 week) ([1]; 0.50% in K-Oleate): 52
- BSI (after 3 months) ([1]; 0.50% in K-Oleate): 80.1
- BSI (after 9 months) ([1]; 0.50% in K-Oleate): 81.3
- bacteria count (1 day after adding additive) ([1]; 0.50% in K-Oleate): 789
- bacteria count (after 1 month) ([1]; 0.50% in K-Oleate): 215
- bacteria count (after 1 week) ([1]; 0.50% in K-Oleate): 758
- bacteria count (after 3 months) ([1]; 0.50% in K-Oleate): 88
- bacteria count (after 6 months) ([1]; 0.50% in K-Oleate): 0
- bacteria count (after 9 months) ([1]; 0.50% in K-Oleate): 30
- BSI (1 day after adding additive) ([1]; 1.00% in K-Oleate): 35
- BSI (after 1 month) ([1]; 1.00% in K-Oleate): 71
- BSI (after 1 week) ([1]; 1.00% in K-Oleate): 43
- BSI (after 3 months) ([1]; 1.00% in K-Oleate): 82.4
- BSI (after 6 months) ([1]; 1.00% in K-Oleate): 30.6
- BSI (after 9 months) ([1]; 1.00% in K-Oleate): 88.8
- bacteria count (1 day after adding additive) ([1]; 1.00% in K-Oleate): 284
- bacteria count (after 1 month) ([1]; 1.00% in K-Oleate): 50
- bacteria count (after 1 week) ([1]; 1.00% in K-Oleate): 176
- bacteria count (after 3 months) ([1]; 1.00% in K-Oleate): 39
- bacteria count (after 6 months) ([1]; 1.00% in K-Oleate): 629
- bacteria count (after 9 months) ([1]; 1.00% in K-Oleate): 13
- BSI (1 day after adding additive) [2, 7]: 18
- BSI (after 1 month) [2, 7]: 47
- BSI (after 1 week) [2, 7]: 14
- BSI (after 3 months) [2, 7]: 75
- BSI (after 9 months) [2, 7]: 90.8
- bacteria count (1 day after adding additive) [2, 7]: 917
- bacteria count (after 1 month) [2, 7]: 360
- bacteria count (after 1 week) [2, 7]: 5040
- bacteria count (after 3 months) [2, 7]: 28.5
- bacteria count (after 6 months) [2, 7]: 0
- bacteria count (after 9 months) [2, 7]: 7.5
- BSI (1 day after adding additive) [2, 8]: 18
- BSI (after 1 month) [2, 8]: 80
- BSI (after 1 week) [2, 8]: 13
- BSI (after 3 months) [2, 8]: 53.1
- BSI (after 6 months) [2, 8]: 55.6
- BSI (after 9 months) [2, 8]: 39.2
- bacteria count (1 day after adding additive) [2, 8]: 369
- bacteria count (after 1 month) [2, 8]: 2.6
- bacteria count (after 1 week) [2, 8]: 141
- bacteria count (after 3 months) [2, 8]: 20.7
- bacteria count (after 6 months) [2, 8]: 5.86
- bacteria count (after 9 months) [2, 8]: 10.5
- bacteria count ([3]; 0.50%, 1 day after adding additive): 226
- bacteria count ([3]; 0.50%, after 1 month): 20
- bacteria count ([3]; 0.50%, after 1 week): 20
- bacteria count ([3]; 0.50%, after 3 months): 282
- bacteria count ([3]; 0.50%, after 6 months): 0
- bacteria count ([3]; 1.00%, 1 day after adding additive): 174
- bacteria count ([3]; 1.00%, after 1 month): 155
- bacteria count ([3]; 1.00%, after 1 week): 180
- bacteria count ([3]; 1.00%, after 3 months): 0
- bacteria count ([3]; 1.00%, after 6 months): 0
- effectiveness as a biocide ([3]; as low concentration as 0.50%, all three test solutions, long term (at least 6 months)): highly effective as a biocide
- solubility in water [4]: 1.4 mg/mL (≈ 6.44 mM)
- solubility in water (words) [4]: water dispersible

SMILES: NCCCN(CCO)CCO [APDEA, N-(3-Aminopropyl) diethanolamine]
- bacteria count 1 mo after adding APDEA [5, 9]: 35
- bacteria count 1 wk after adding APDEA [5, 9]: 73
- bacteria count 3 mo after adding APDEA [5, 9]: 83
- bacteria count 6 mo after adding APDEA [5, 9]: 195
- bacteria count 1 d after adding APDEA [5, 9]: 25
- bacteria count 1 mo after adding APDEA [5, 10]: 40
- bacteria count 1 wk after adding APDEA [5, 10]: 33
- bacteria count 3 mo after adding APDEA [5, 10]: 65
- bacteria count 6 mo after adding APDEA [5, 10]: 96.6
- bacteria count 1 d after adding APDEA [5, 10]: 71
- bacteria count 1 mo after adding APDEA [5, 11]: 60
- bacteria count 1 wk after adding APDEA [5, 11]: 33
- bacteria count 3 mo after adding APDEA [5, 11]: 84
- bacteria count 6 mo after adding APDEA [5, 11]: 45
- bacteria count 1 d after adding APDEA [5, 11]: 82
- bacteria count 1 mo after adding APDEA [5, 12]: 85
- bacteria count 1 wk after adding APDEA [5, 12]: 66
- bacteria count 3 mo after adding APDEA [5, 12]: 48
- bacteria count 6 mo after adding APDEA [5, 12]: 79
- bacteria count 1 d after adding APDEA [5, 12]: 29
- bacteria count 1 mo after adding APDEA [5, 13]: 50
- bacteria count 1 wk after adding APDEA [5, 13]: 116
- bacteria count 3 mo after adding APDEA [5, 13]: 38.8
- bacteria count 6 mo after adding APDEA [5, 13]: 22
- bacteria count 1 d after adding APDEA [5, 13]: 59
- bacteria count 1 mo after adding APDEA [5, 14]: 98
- bacteria count 1 wk after adding APDEA [5, 14]: 95
- bacteria count 3 mo after adding APDEA [5, 14]: 177
- bacteria count 6 mo after adding APDEA [5, 14]: 93
- bacteria count 1 d after adding APDEA [5, 14]: 71
- biocidal effect as sole biocide ([5]; 0.5 and 1 wt % to water phase): effects similar to NBDA
- bacteria count 1 mo after adding APDEA [5, 15]: 78
- bacteria count 1 wk after adding APDEA [5, 15]: 80
- bacteria count 3 mo after adding APDEA [5, 15]: 134
- bacteria count 6 mo after adding APDEA [5, 15]: 167
- bacteria count 1 d after adding APDEA [5, 15]: 66
- bacteria count 1 mo after adding APDEA [5, 16]: 100
- bacteria count 1 wk after adding APDEA [5, 16]: 22.4
- bacteria count 3 mo after adding APDEA [5, 16]: 99
- bacteria count 6 mo after adding APDEA [5, 16]: 132
- bacteria count 1 d after adding APDEA [5, 16]: 12
- bacteria count 1 mo after adding APDEA [5, 17]: 110
- bacteria count 1 wk after adding APDEA [5, 17]: 115
- bacteria count 3 mo after adding APDEA [5, 17]: 98
- bacteria count 6 mo after adding APDEA [5, 17]: 38
- bacteria count 1 d after adding APDEA [5, 17]: 75
- bacteria count 1 mo after adding APDEA [5, 18]: 98
- bacteria count 1 wk after adding APDEA [5, 18]: 81
- bacteria count 3 mo after adding APDEA [5, 18]: 92
- bacteria count 6 mo after adding APDEA [5, 18]: 98
- bacteria count 1 d after adding APDEA [5, 18]: 69
- bacteria count 1 mo after adding APDEA [5, 19]: 33
- bacteria count 1 wk after adding APDEA [5, 19]: 18
- bacteria count 3 mo after adding APDEA [5, 19]: 78
- bacteria count 6 mo after adding APDEA [5, 19]: 20
- bacteria count 1 d after adding APDEA [5, 19]: 45
- bacteria count 1 mo after adding APDEA [5, 20]: 75
- bacteria count 1 wk after adding APDEA [5, 20]: 136
- bacteria count 3 mo after adding APDEA [5, 20]: 151
- bacteria count 6 mo after adding APDEA [5, 20]: 35
- bacteria count 1 d after adding APDEA [5, 20]: 72
- solubility in water (words) [4]: water soluble

SMILES: [Cl-].[Na+] [NaCl, reference compound]
- LD50 (rat, oral) [6]: 3000 mg
